The target of one series is ITK kinase (Homo sapiens (Human), UniProt Q08881). Nature of the series: ITK kinase enzymatic assay (same HTRF method as BTK). It is filed as biochemical. The note with it: Table 1; read-out: Itk IC50. How it is done: (§1) The compounds were gradiently diluted 3 folds starting from 1 mM with 100% DMSO (totally 11 concentrations). 4 μL of each sample with a different concentration was added into 96 μL of reaction buffer (50 mM HEPES, pH 7.4, 10 mM MgCl2, 1 mM EGTA, 0.01% Tween-20, 0.005% BAS, 2 mM DTT). […] The mixture was centrifuged to mix well, followed by adding 2.5 μL of a mixture of ATP (final concentration designated as Km) and TK petide (HTRF® KinEASE™-TK, Cisbio) to initiate the reaction (total reaction volume being 10 μL). […] The enzyme activity for each compound was determined at 11 concentrations, and IC50 values were obtained by GraFit Software 6.0 (Erithacus Software).
In vitro activity in inhibiting ITK kinase was determined similar to that in respect of BTK kinase.
(TR-FRET usually uses a lanthanide donor and a delayed reading to cut background.)

A further series deals with Btk kinase (Homo sapiens (Human), UniProt Q06187). Description: Btk kinase enzymatic activity assay (HTRF). It is filed as biochemical. The note with it: Table 1; read-out: Btk IC50. How it is done: The half inhibition concentrations (IC50 values) of the compounds disclosed herein on Btk were determined at both enzymatic level and cellular level: the ability of the compounds to inhibit the activity of Btk kinase was determined in an enzymtic activity assay, and the inhibitory effect of the compounds on BCR-induced calcium flux in cells was determined in a cellular function assay.
as §1

Another series relates to OCI-LY-10 cells. Nature of the series: Efficacy in subcutaneously xenografted tumor model in mice. It counts as in vivo, CB-17 SCID mice. As to the method:
SPF grade female CB-17 SCID mice (4-5 week) were used. 0.1 ml of OCI-LY-10 cells suspended in serum-free medium (containing 5×10^6 cells, 30% Matrigel) were injected subcutaneously in both the left and the right flanks of mice. Mice were grouped and numbered when the average tumor volumes were more than 100 mm3, and the body weights and tumor volumes were determined. The mice were randomly grouped according to tumor volumes, and appropriate adjustments were made so that the average body weight in each group is on the same level. Animals were dosed orally on the same day when they were grouped, and body weights and tumor volumes were measured twice a week. Relative tumor growth (T/C) and Tumor growth inhibition (TGI) were the major test indeces.
The equation for calculating the tumor volume is V=0.5×a×b^2, wherein v is the tumor volume, a and b are the length and the width of the tumor, respectively. The relative tumor volume (RTV) was calculated according to the tumor volume with the equation RTV=Vt/V0, wherein V0 was the tumor volume at the time when the animals were grouped, and Vt was the tumor volume at indicated time points. The equation for calculating the relative tumor proliferation rate was T/C (%)=TRTV/CRTV*100%. (TRTV was the RTV of treated group, and CRTV was the RTV of control group).
The equation for calculating the tumor growth inhibition rate was TGI (%)=(1−(tumor volume of the treated group−tumor volume of the treated group at the time when the animals were grouped)/(tumor volume of the control group−tumor volume of the control group at the time when the animals were grouped))*100%.

Series [1] is described as follows: Toxicity test in mice (7-day oral administration). It counts as in vivo, CD-1 (ICR) mice. The note with it: for Average body weight of mice / Changes (%) in mice body weight in treated group over control group: 1000 mg/kg oral once a day. The source says: Body weights and conditions of mice were monitored every day, during which all mice were not fasting.
The mark [2] stands for this setting: 1000 mg/kg oral once a day for 7 days.

Each structure is given as a SMILES string.

Chain of ITK kinase (Q08881 whole entry): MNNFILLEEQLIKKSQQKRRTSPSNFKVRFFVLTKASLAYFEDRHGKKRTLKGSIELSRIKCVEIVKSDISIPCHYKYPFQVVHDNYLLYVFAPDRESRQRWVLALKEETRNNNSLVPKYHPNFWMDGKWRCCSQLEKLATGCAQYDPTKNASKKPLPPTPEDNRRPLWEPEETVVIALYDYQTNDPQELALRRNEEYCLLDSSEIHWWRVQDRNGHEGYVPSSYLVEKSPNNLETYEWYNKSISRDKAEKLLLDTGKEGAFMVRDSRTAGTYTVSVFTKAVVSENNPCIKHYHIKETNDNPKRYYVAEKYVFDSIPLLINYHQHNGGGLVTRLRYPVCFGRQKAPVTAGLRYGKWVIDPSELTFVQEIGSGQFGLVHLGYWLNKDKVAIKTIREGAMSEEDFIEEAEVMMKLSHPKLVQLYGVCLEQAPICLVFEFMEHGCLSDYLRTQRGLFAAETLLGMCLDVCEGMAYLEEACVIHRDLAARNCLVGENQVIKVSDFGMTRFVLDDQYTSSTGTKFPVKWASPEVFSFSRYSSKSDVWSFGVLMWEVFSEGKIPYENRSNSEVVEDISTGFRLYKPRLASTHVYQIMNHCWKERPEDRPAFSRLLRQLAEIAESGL
Chain of Btk kinase (Q06187 whole entry): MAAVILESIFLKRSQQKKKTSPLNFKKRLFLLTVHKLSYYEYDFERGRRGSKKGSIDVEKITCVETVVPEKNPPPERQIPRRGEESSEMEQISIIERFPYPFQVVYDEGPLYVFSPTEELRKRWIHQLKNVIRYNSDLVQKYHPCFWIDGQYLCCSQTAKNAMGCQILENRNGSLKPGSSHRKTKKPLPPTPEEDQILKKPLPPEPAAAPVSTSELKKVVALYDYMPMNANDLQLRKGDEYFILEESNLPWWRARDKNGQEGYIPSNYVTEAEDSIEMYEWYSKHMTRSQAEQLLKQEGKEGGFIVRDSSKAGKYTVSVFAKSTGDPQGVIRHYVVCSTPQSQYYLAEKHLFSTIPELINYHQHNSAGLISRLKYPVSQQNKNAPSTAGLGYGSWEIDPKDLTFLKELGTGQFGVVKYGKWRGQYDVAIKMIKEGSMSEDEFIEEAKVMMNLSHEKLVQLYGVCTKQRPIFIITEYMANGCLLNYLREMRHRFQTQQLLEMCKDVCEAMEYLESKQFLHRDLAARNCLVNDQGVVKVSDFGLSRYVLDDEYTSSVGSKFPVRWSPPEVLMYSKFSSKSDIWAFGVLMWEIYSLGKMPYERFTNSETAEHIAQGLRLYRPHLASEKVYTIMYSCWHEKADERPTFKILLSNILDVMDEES

Usually IC50 stands for the concentration that inhibits the measured activity by half. Turning to `C=CS(=O)(=O)N1CCC[C@@H](n2nc(-c3ccc(Oc4ccccc4)cc3)c(C(N)=O)c2N)C1` [Example 1, (R)-5-amino-3-(4-phenoxyphenyl)-1-(1-(vinylsulfonyl)piperidin-3-yl)-1H-pyrazole-4-carboxamide], the IC50 on ITK kinase and on Btk kinase was less than 100 nM in each case.

Regarding `C=CS(=O)(=O)N1CC[C@@H](n2nc(-c3ccc(Oc4ccccc4)cc3)c(C(N)=O)c2N)C1` [Example 2, (R)-5-amino-3-(4-phenoxyphenyl)-1-(1-(vinylsulfonyl)pyrrolidin-3-yl)-1H-pyrazole-4-carboxamide], the half-maximal inhibitory concentration (IC50) on ITK kinase and at Btk kinase was less than 100 nM throughout.

With `CN(C)C/C=C/C(=O)N1CC[C@@H](n2nc(-c3ccc(Oc4ccccc4)cc3)c(C(N)=O)c2N)C1` [Example 3, (R,E)-5-amino-1-(1-(4-(dimethylamino)but-2-enoyl)pyrrolidin-3-yl)-3-(4-phenoxyphenyl)-1H-pyrazole-4-carboxamide], the IC50 is more than 1000 nM at ITK kinase and less than 100 nM on Btk kinase.

Consider `NC(=O)c1c(-c2ccc(Oc3ccccc3)cc2)nn([C@@H]2CCN(C(=O)/C=C/CN3CCOCC3)C2)c1N` [Example 4, (R,E)-5-amino-1-(1-(4-morpholinobut-2-enoyl)pyrrolidin-3-yl)-3-(4-phenoxyphenyl)-1H-pyrazole-4-carboxamide], for which the figures for the concentration for half-maximal inhibition (IC50) on ITK kinase and at Btk kinase were more than 1000 nM and less than 100 nM, respectively.

For the molecule `NC(=O)c1c(-c2ccc(Oc3ccccc3)cc2)nn([C@@H]2CCN(C(=O)/C=C/CN3CCCCC3)C2)c1N` [Example 5, (R,E)-5-amino-3-(4-phenoxyphenyl)-1-(1-(4-(piperidin-1-yl)but-2-enoyl)pyrrolidin-3-yl)-1H-pyrazole-4-carboxamide], the concentration for half-maximal inhibition (IC50) at ITK kinase is more than 1000 nM; on Btk kinase, less than 100 nM.

Consider `NC(=O)c1c(-c2ccc(Oc3ccccc3)cc2)nn([C@@H]2CCN(C(=O)/C=C/CN3CCCC3)C2)c1N` [Example 6, (R,E)-5-amino-3-(4-phenoxyphenyl)-1-(1-(4-(pyrrolidin-1-yl)but-2-enoyl)pyrrolidin-3-yl)-1H-pyrazole-4-carboxamide], for which the IC50 at ITK kinase is more than 1000 nM; on Btk kinase, less than 100 nM.

With `C/C=C/C(=O)N1CC[C@@H](n2nc(-c3ccc(Oc4ccccc4)cc3)c(C(N)=O)c2N)C1` [Example 7, (R,E)-5-amino-1-(1-(but-2-enoyl)pyrrolidin-3-yl)-3-(4-phenoxyphenyl)-1H-pyrazole-4-carboxamide], in the series on OCI-LY-10 cells (100 mg/kg PO QD), the “TGI (%) Day 3” value was 33.27%, the “TGI (%) Day 8” value was 19.00% and the “TGI (%) Day 11” value came out at 11.28%. Besides, the IC50 on ITK kinase was more than 1000 nM. For the same molecule, the half-inhibitory concentration (IC50) at Btk kinase was less than 100 nM.

As to `CC(C)/C=C/C(=O)N1CC[C@@H](n2nc(-c3ccc(Oc4ccccc4)cc3)c(C(N)=O)c2N)C1` [Example 8, (R,E)-5-amino-1-(1-(4-methylpent-2-enoyl)pyrrolidin-3-yl)-3-(4-phenoxyphenyl)-1H-pyrazole-4-carboxamide], the 50% inhibitory concentration (IC50) on ITK kinase was more than 1000 nM; at Btk kinase, less than 100 nM.

In the case of `NC(=O)c1c(-c2ccc(Oc3ccccc3)cc2)nn([C@@H]2CCN(C/C=C/C(=O)O)C2)c1N` [Example 10, (R,E)-4-(3-(5-amino-4-carbamoyl-3-(4-phenoxyphenyl)-1H-pyrazol-1-yl)pyrrolidin-1-yl)but-2-enoic Acid], the results for the IC50 at ITK kinase and on Btk kinase were more than 1000 nM and less than 100 nM, respectively.

On to `NC(=O)c1c(-c2ccc(Oc3ccccc3)cc2)nn([C@@H]2CCN(C(=O)/C=C\C(=O)O)C2)c1N` [Example 11, (R,Z)-4-(3-(5-amino-4-carbamoyl-3-(4-phenoxyphenyl)-1H-pyrazol-1-yl)pyrrolidin-1-yl)-4-oxobut-2-enoic Acid], for which the IC50 at ITK kinase was more than 1000 nM; on Btk kinase it was less than 100 nM.

Consider `NC(=O)c1c(-c2ccc(Oc3ccccc3)cc2)nn([C@@H]2CCN(C(=O)/C=C/CBr)C2)c1N` [Example 12, (R,E)-5-amino-1-(1-(4-bromobut-2-enoyl)pyrrolidin-3-yl)-3-(4-phenoxyphenyl)-1H-pyrazole-4-carboxamide], for which the 50% inhibitory concentration (IC50) on ITK kinase is more than 1000 nM; at Btk kinase it was less than 100 nM.

On to `CC(=O)OC/C=C/C(=O)N1CC[C@@H](n2nc(-c3ccc(Oc4ccccc4)cc3)c(C(N)=O)c2N)C1` [Example 13, (R,E)-4-(3-(5-amino-4-carbamoyl-3-(4-phenoxyphenyl)-1H-pyrazol-1-yl)pyrrolidin-1-yl)-4-oxobut-2-en-1-yl acetate], for which the half-inhibitory concentration (IC50) at ITK kinase is more than 1000 nM; at Btk kinase it was less than 100 nM.

As for `CS(=O)(=O)NC/C=C/C(=O)N1CC[C@@H](n2nc(-c3ccc(Oc4ccccc4)cc3)c(C(N)=O)c2N)C1` [Example 14, (R,E)-5-amino-1-(1-(4-(methylsulfonamido)but-2-enoyl)pyrrolidin-3-yl)-3-(4-phenoxyphenyl)-1H-pyrazole-4-carboxamide], the figures for the half-inhibitory concentration (IC50) at ITK kinase and at Btk kinase were more than 1000 nM and less than 100 nM, respectively.

Turning to `NC(=O)c1c(-c2ccc(Oc3ccccc3)cc2)nn([C@@H]2CCN(C(=O)/C=C/CO)C2)c1N` [Example 15, (R,E)-5-amino-1-(1-(4-hydroxybut-2-enoyl)pyrrolidin-3-yl)-3-(4-phenoxyphenyl)-1H-pyrazole-4-carboxamide], the figures for the 50% inhibitory concentration (IC50) at ITK kinase and at Btk kinase were more than 1000 nM and less than 100 nM, respectively.

With `CC#CC(=O)N1CC[C@@H](n2nc(-c3ccc(Oc4ccccc4)cc3)c(C(N)=O)c2N)C1` [Example 16, (R)-5-amino-1-(1-(but-2-ynoyl)pyrrolidin-3-yl)-3-(4-phenoxyphenyl)-1H-pyrazole-4-carboxamide], in series [1] (setting [2]), the “difference in body weight change from control group” value is listed as less than 2%. For the same molecule, in series [1] (setting [2]), the toxicity entry was “no toxicity”. The “Average body weight of mice” value was determined as 24.8 g in series [1] (Day 1); 25.3 g in series [1] (Day 2); 25.7 g in series [1] (Day 3); 25.9 g in series [1] (Day 4); 26.3 g in series [1] (Day 5); 26.5 g in series [1] (Day 6). In series [1] (Day 7), the “Average body weight of mice” value is reported as 26.9 g. Besides, the “Changes (%) in mice body weight in treated group over control group” value in series [1] (Day 1) came out at 100.0%; in series [1] (Day 2), 101.1%; in series [1] (Day 3), 100.8%; in series [1] (Day 4), 100.6%; in series [1] (Day 5), 99.8%; in series [1] (Day 6), 98.5%. Also, the “Changes (%) in mice body weight in treated group over control group” value in series [1] (Day 7) came to 98.9%. The “TGI (%) Day 3” value with OCI-LY-10 cells (50 mg/kg PO BID) is on record as 35.97%; with OCI-LY-10 cells (100 mg/kg PO QD), 14.97%. In addition, the “TGI (%) Day 8” value with OCI-LY-10 cells (50 mg/kg PO BID) is on record as 32.25%; with OCI-LY-10 cells (100 mg/kg PO QD), 19.53%. The “TGI (%) Day 11” value came out at 44.47% with OCI-LY-10 cells (50 mg/kg PO BID) and 29.98% in the series with OCI-LY-10 cells (100 mg/kg PO QD). Also, the results for the IC50 on ITK kinase and at Btk kinase were more than 1000 nM and less than 100 nM, respectively.

As to `C#CC(=O)N1CC[C@@H](n2nc(-c3ccc(Oc4ccccc4)cc3)c(C(N)=O)c2N)C1` [Example 17, (R)-5-amino-3-(4-phenoxyphenyl)-1-(1-propioloylpyrrolidin-3-yl)-1H-pyrazole-4-carboxamide], the IC50 on ITK kinase and at Btk kinase was less than 100 nM in each case.

In the case of `CC#CC(=O)N[C@H]1CC[C@@H](n2nc(-c3ccc(Oc4ccccc4)cc3)c(C(N)=O)c2N)CC1` [Example 18, 5-amino-1-((1s,4s)-4-(but-2-ynamido)cyclohexyl)-3-(4-phenoxyphenyl)-1H-pyrazole-4-carboxamide], the figures for the IC50 on ITK kinase and at Btk kinase were more than 1000 nM and less than 100 nM, respectively.

The values above are taken from patent publication US10112922B2, “Inhibitor of bruton's tyrosine kinase” (Centaurus BioPharma Co., Ltd., priority 2014, dated 2018).
